Experimental data from patent US10844032B2, “Substituted benzofuran, benzothiophene and indole Mcl-1 inhibitors” (Vanderbilt University, priority 2012, dated 2020).

Target: recombinant Mcl-1 (residues 172-327) (Homo sapiens (Human), UniProt Q07820)
Experiment: Bak peptide fluorescence polarization anisotropy competition assay, Mcl-1
Format: binding
Settings: Table 2, Ki range; FITC-Bak peptide 10 nM, Mcl-1 14 nM; read-out: Ki for inhibition of Mcl-1

recombinant Mcl-1 (residues 172-327), sequence (Q07820 172-327): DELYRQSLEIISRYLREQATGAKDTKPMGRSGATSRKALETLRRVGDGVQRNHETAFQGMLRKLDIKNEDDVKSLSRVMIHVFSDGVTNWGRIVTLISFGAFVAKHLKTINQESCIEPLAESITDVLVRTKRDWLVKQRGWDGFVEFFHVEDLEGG

| Ki [nM] | SMILES |
| --- | --- |
| ≤ 100 | Cc1cc(OCCCc2c(C(=O)NS(=O)(=O)CCNC(=O)C3CCCCC3)[nH]c3c(-c4c(CO)nn(C)c4C)cccc23)cc(C)c1Cl [Example 205, 3-(3-(4-chloro-3,5-dimethylphenoxy)propyl)-N-((2-(cyclohexanecarboxamido)ethyl)sulfonyl)-7-(3-(hydroxymethyl)-1,5-dimethyl-1H-pyrazol-4-yl)-1H-indole-2-carboxamide] |

Same assay, conditions: read-out: Ki for inhibition of Mcl-1

| Ki [nM] | SMILES |
| --- | --- |
| 301 to 500 | Cc1occc1C(=O)NCCS(=O)(=O)NC(=O)c1[nH]c2cc(Cl)ccc2c1CCCOc1cccc2ccccc12 [Example 229, 6-chloro-N-((2-(2-methylfuran-3-carboxamido)ethyl)sulfonyl)-3-(3-(naphthalen-1-yloxy)propyl)-1H-indole-2-carboxamide] |
| 301 to 500 | Cc1cc(OCCCc2c(C(=O)NS(=O)(=O)CCNC(=O)c3cccc(-c4ccccc4)c3)[nH]c3ccccc23)cc(C)c1Cl [Example 165, N-((2-([1,1′-biphenyl]-3-ylcarboxamido)ethyl)sulfonyl)-3-(3-(4-chloro-3,5-dimethylphenoxy)propyl)-1H-indole-2-carboxamide] |
| 301 to 500 | Cc1cc(OCCCc2c(C(=O)NS(=O)(=O)CCNC(=O)c3cc(C)n(C)c3C)[nH]c3ccccc23)cc(C)c1Cl [Example 192, 3-(3-(4-chloro-3,5-dimethylphenoxy)propyl)-N-((2-(1,2,5-trimethyl-1H-pyrrole-3-carboxamido)ethyl)sulfonyl)-1H-indole-2-carboxamide] |
| 1000 to 9990 | Cc1cc(OCCCc2c(C(=O)NS(=O)(=O)CCNC(=O)c3c(C)nn(C)c3C)[nH]c3ccccc23)cc(C)c1Cl [Example 183, 3-(3-(4-chloro-3,5-dimethylphenoxy)propyl)-N-((2-(1,3,5-trimethyl-1H-pyrazole-4-carboxamido)ethyl)sulfonyl)-1H-indole-2-carboxamide] |
| 301 to 500 | Cc1cc(OCCCc2c(C(=O)NS(=O)(=O)CCCNC(=O)CCc3cc(-c4ccccc4)n[nH]3)[nH]c3cc(Cl)ccc23)cc(C)c1Cl [Example 257, 6-chloro-3-(3-(4-chloro-3,5-dimethylphenoxy)propyl)-N-((3-(3-(3-phenyl-1H-pyrazol-5-yl)propanamido)propyl)sulfonyl)-1H-indole-2-carboxamide] |
| 10000 to 50000 | Cc1cccc(OCCCc2c(C(=O)NS(C)(=O)=O)[nH]c3ccccc23)c1 [Example 31, N-(methylsulfonyl)-3-(3-(m-tolyloxy)propyl)-1H-indole-2-carboxamide] |
| 301 to 500 | Cc1cc(OCCCc2c(C(=O)NS(=O)(=O)C3CCN(C(=O)c4cccn4Cc4ccccc4)CC3)[nH]c3cc(Cl)ccc23)cc(C)c1Cl [Example 215, N-((1-(1-benzyl-1H-pyrrole-2-carbonyl)piperidin-4-yl)sulfonyl)-6-chloro-3-(3-(4-chloro-3,5-dimethylphenoxy)propyl)-1H-indole-2-carboxamide] |
| 301 to 500 | Cc1cc(OCCCc2c(C(=O)NS(=O)(=O)c3ccc(Oc4ccccc4)cc3)[nH]c3ccccc23)cc(C)c1Cl [Example 132, 3-(3-(4-chloro-3,5-dimethylphenoxy)propyl)-N-((4-phenoxyphenyl)sulfonyl)-1H-indole-2-carboxamide] |
| 501 to 999 | Cc1cc(OCCCc2c(C(=O)NS(=O)(=O)CCCN3C(=O)c4ccccc4C3=O)[nH]c3cc(Cl)ccc23)cc(C)c1Cl [Example 256, 6-chloro-3-(3-(4-chloro-3,5-dimethylphenoxy)propyl)-N-((3-(1,3-dioxoisoindolin-2-yl)propyl)sulfonyl)-1H-indole-2-carboxamide] |
| 301 to 500 | CS(=O)(=O)NC(=O)c1[nH]c2cc(Br)ccc2c1CCCOc1cccc2ccccc12 [Example 114, 6-bromo-N-(methylsulfonyl)-3-(3-(naphthalen-1-yloxy)propyl)-1H-indole-2-carboxamide] |
| 301 to 500 | Cc1cc(OCCCc2c(C(=O)NS(=O)(=O)c3ccnc(Cl)c3)[nH]c3ccccc23)cc(C)c1Cl [Example 135, 3-(3-(4-chloro-3,5-dimethylphenoxy)propyl)-N-((2-chloropyridin-4-yl)sulfonyl)-1H-indole-2-carboxamide] |
